Data: US10793565B2, “Heterocyclic compounds as immunomodulators” (Incyte Corporation, priority 2016, dated 2020)

Target: PD-1/PD-L1 protein/protein interaction (Homo sapiens (Human), UniProt Q9NZQ7)
Assay: PD-1/PD-L1 Homogeneous Time-Resolved Fluorescence (HTRF) binding assay
Conditions: recombinant human PD-L1 (19-238) His-tag, human PD-1 (25-167) Fc tag; 25° C., PBS pH 7.4
Method: Example A. PD-1/PD-L1 Homogeneous Time-Resolved Fluorescence (HTRF) Binding Assay
The assays were conducted in a standard black 384-well polystyrene plate with a final volume of 20 μL. Inhibitors were first serially diluted in DMSO and then added to the plate wells before the addition of other reaction components. The final concentration of DMSO in the assay was 1%. The assays were carried out at 25° C. in the PBS buffer (pH 7.4) with 0.05% Tween-20 and 0.1% BSA. Recombinant human PD-L1 protein (19-238) with a His-tag at the C-terminus was purchased from AcroBiosystems (PD1-H5229). Recombinant human PD-1 protein (25-167) with Fc tag at the C-terminus was also purchased from AcroBiosystems (PD1-H5257). PD-L1 and PD-1 proteins were diluted in the assay buffer and 10 μL was added to the plate well. Plates were centrifuged and proteins were preincubated with inhibitors for 40 minutes. The incubation was followed by the addition of 10 μL of HTRF detection buffer supplemented with Europium cryptate-labeled anti-human IgG (PerkinElmer-AD0212) specific for Fc and anti-His antibody conjugated to SureLight®-Allophycocyanin (APC, PerkinElmer-AD0059H). After centrifugation, the plate was incubated at 25° C. for 60 min. before reading on a PHERAstar FS plate reader (665 nm/620 nm ratio). Final concentrations in the assay were […], 10 nM PD-L1, 1 nM europium anti-human IgG and 20 nM anti-His-Allophycocyanin. IC50 determination was performed by fitting the curve of percent control activity versus the log of the inhibitor concentration using the GraphPad Prism 5.0 software.

Chain of PD-1/PD-L1 protein/protein interaction (Q9NZQ7 19-238): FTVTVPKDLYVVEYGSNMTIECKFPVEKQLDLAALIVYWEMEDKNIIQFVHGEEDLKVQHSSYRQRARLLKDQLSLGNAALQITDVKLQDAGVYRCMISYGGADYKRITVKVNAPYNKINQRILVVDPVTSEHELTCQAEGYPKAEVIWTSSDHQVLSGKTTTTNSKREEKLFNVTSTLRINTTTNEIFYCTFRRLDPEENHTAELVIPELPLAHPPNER

Row | IC50 [nM] | Compound
1 | ≤ 10 | Cc1c(-c2nc3c(Cl)cc(CNCCO)cn3n2)cccc1-c1cccc(NC(=O)c2ccc(CNCCO)cn2)c1Cl [Example 2, N-(2-chloro-3′-(8-chloro-6-((2-hydroxyethylamino)methyl)-[1,2,4]triazolo[1,5-a]pyridin-2-yl)-2′-methylbiphenyl-3-yl)-5-((2-hydroxyethylamino)methyl)picolinamide]
2 | ≤ 10 | Cc1c(-c2nc3c(Cl)cc(CNCCO)cn3n2)cccc1-c1cccc(-c2nc3c(s2)CNCC3)c1C [Example 4, 2-((8-chloro-2-(2,2′-dimethyl-3′-(4,5,6,7-tetrahydrothiazolo[5,4-c]pyridin-2-yl)biphenyl-3-yl)-[1,2,4]triazolo[1,5-a]pyridin-6-yl)methylamino)ethanol]
3 | ≤ 10 | Cc1c(NC(=O)c2ccc(CNCCO)cn2)cccc1-c1cccc(-c2nc3c(Cl)cc(CNCCO)cn3n2)c1C [Example 1, N-(3′-(8-chloro-6-((2-hydroxyethylamino)methyl)-[1,2,4]triazolo[1,5-a]pyridin-2-yl)-2,2′-dimethylbiphenyl-3-yl)-5-((2-hydroxyethylamino)methyl)picolinamide]
4 | ≤ 10 | Cc1c(-c2nc3c(C#N)cc(CNCCO)cn3n2)cccc1-c1cccc(NC(=O)c2ccc(CNCCO)cn2)c1Cl [Example 3, N-(2-chloro-3′-(8-cyano-6-((2-hydroxyethylamino)methyl)-[1,2,4]triazolo[1,5-a]pyridin-2-yl)-2′-methylbiphenyl-3-yl)-5-((2-hydroxyethylamino)methyl)picolinamide]
